Measurements as given in patent publication US10442835B2, “Water-soluble rapamycin derivatives” (Zhejiang Hisun Pharmaceutical Co., Ltd., priority 2016, dated 2019).

What was measured:
[1] = system: human breast cancer cell MDA-MB-435; test: In vitro activity assay, growth of MDA-MB-435; format: cell-based; settings: 48 h
Excerpt: (§1) The anti-tumor activity and toxicity of the compounds according to the present invention can be assayed through standard operational procedures of pharmacological experiment. The experiments carried out herein can test the inhibitory effect of the compounds according to the present invention on the growth of human liver cancer cell HepG2, lung cancer cell NCI460, prostate cancer cell DU145, prostate cancer cell PC3, and human breast cancer cell MDA-MB-435. The operational procedure used is briefly described below by taking the inhibitory activity assay against human liver cancer cell HepG2 as an example.
(§2) The operational procedure for the assay is as follows:
(§3) 1. Cells after being trypsinized were inoculated in 96-well plates at a concentration of 10^4 cells/well, and allowed to grow in a medium with a final volume of 200 μL. The 96-well plates after inoculation are allowed to stand for 24 hours at 37° C., in order to allow the cells to adhere to the surface of the wells.
(§4) 2. The medium was removed by carefully pipetting without disturbing the cell monolayer. 200 μL Fresh medium was added into each well. It is arranged to make it possible to collect samples from enough wells to run the experiments in triplicate.
(§5) 3. The compounds to be tested according to the present invention were dissolved into 10 μL phosphate buffered solution (PBS) and incubated for 48 h at 37° C.
(§6) 4. In the last 6 h of incubation, cells in each well of the 96-well plates were labeled by 1 microcurie T thymidine (New England Nuclear thymidine), by adding 10 μL PBS containing 1 microcurie T thymidine (which was added into the PBS on the day of collecting the samples for test). The 96-well plates were then returned to the incubator and incubated for the last 6 h.
(§7) 5. Without disturbing the cell monolayer, the radioactive medium was removed by pipetting. Then 50 μL of BRL 10×trypsin was added to each well, followed by incubation at 37° C. for 10 minutes or until the cell monolayer was detached from the bottom (or the wall) of each well. Samples were collected on glass-fiber diskettes using a Skatron 96-well cell harvester. Cells depositing on the glass-fiber diskettes were counted in a Wallac Betaplate counter.

prostate cancer cell PC3 = test: In vitro activity assay, growth of PC3; format: cell-based; settings: 48 h
Excerpt: as §1, §2, §3, §4, §5, §6, §7

[2] = system: human renal cell carcinoma OS-RC-2; test: In vivo inhibitory activity against human renal cell carcinoma OS-RC-2 in nude mice; settings: for Tumor Weight ± SD: end of experiment
Method: The tumor inhibition rate was calculated.

[3] = system: human liver cancer cell HepG2; test: In vitro activity assay, growth of HepG2 (thymidine incorporation); format: cell-based; settings: 48 h
Excerpt: as §1
Human liver cancer cell HepG2 grew in the follow medium:
Preparation of the growth medium: BRL minimum essential medium with Earle Salts (500 mL), with the addition of the following agents:
as §2, §3, §4, §5, §6, §7

DU145 = test: In vivo tumor inhibitory efficacy against DU145 tumor in nude mice, intragastrical vs injection; settings: for Mean Volume of Tumor: 3×/w, 4 w; for tumor inhibitory effect compared with intragastrical everolimus 5 mg/kg: compound I-1 tail vein injection, end of the test
Method: (§8) DU145 (the 3rd generation) tumors in the rapid proliferation stage inoculated in the axilla of nude mice were cut into tumor lumps with a size of 1 mm*1 mm*1 mm and then were inoculated subcutaneously to the right limb of nude mice using a trocar under a sterile condition. When the tumors grow to 150-200 mm^3, the mice were randomly divided into three groups and then administrated with the compounds for 4 weeks. The major diameter (a) and the minor diameter (b) of the tumors were measured 2 or 3 times a week. The tumor volume (TV) was calculated with the following equation: TV=½×a×b^2. Tumors were stripped and weighted at Day 28 and the tumor inhibition rate was calculated using the following equation: (tumor weight of control−tumor weight of experimental group)/tumor weight of control×100%.
(§9) The nude mice were divided into 3 groups with 4 mice per group when the tumors averagely grew to about 185-200 mm^3, depending on the growth regularity of the tumor and the dosage regimen.

[4] = Body weight of NCI-H460 tumor nude mice; settings: for Body Weights, mean value / Decrease rate (body weight) / Decrease in body weight: everolimus 5 mg/kg, compound I-1 6.8 mg/kg, qw 4×;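 for all read-outs here: Tumor-bearing mice dosed for 4 weeks once tumors reached 150–200 mm^3, with a vehicle control group, and body weight loss taken as an indirect sign of drug toxicity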
Method: NCI-H460 (the 3rd generation) tumors in the rapid proliferation stage inoculated in the axilla of nude mice were cut into tumor lumps with a size of 1 mm*1 mm*1 mm and then were inoculated subcutaneously to the right limb of nude mice using a trocar under a sterile condition. When the tumors grew to 150˜200 mm^3, the mice were divided into groups and then administrated with the compounds for 4 weeks. The major diameter (a) and the minor diameter (b) of the tumors were measured two or three times a week. The tumor volume (TV) and the relative tumor proliferation rate (T/C) were calculated. The equation for calculating the tumor volume is: TV=½×a×b^2. The equation for calculating the relative tumor proliferation rate is T/C=TRTC/CRTV (TRTC: average relative tumor volume in the treatment group; CRTV: average relative tumor volume in the vehicle control group). Tumors were stripped and weighted at Day 28 and the tumor-inhibition rate was calculated with the following equation: (tumor weight of control−tumor weight of experimental group)/tumor weight of control×100%.
Grouping method: the mice were divided into 3 groups with 6 mice per group when the tumors averagely grew to about 195 mm^3, depending on the growth regularity of the tumor and the dosage regimen. Administration route: intragastrical administration.
G1: Control (vehicle, qw 4×, iv)
G2: Positive drug group: Everolimus (5 mg/kg, qw 4×, iv)

lung cancer cell NCI460 = test: In vitro activity assay, growth of NCI460; format: cell-based; settings: NCI-460, 48 h
Excerpt: as §1, §2, §3, §4, §5, §6, §7

[5] = system: prostate cancer cell DU145; test: In vitro activity assay, growth of DU145; format: cell-based; settings: Homo sapiens; DU-145; 48 h
Excerpt: as §1, §2, §3, §4, §5, §6, §7

[6] = Body weight of DU145 tumor nude mice; settings: Day 0; G2 compound I-1 3.4 mg/kg tail vein injection, 3×/w, 4 w;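 note: dosing started once xenografts reached 150-200 mm^3, with mice randomized into three groups, loss of body weight served as an indirect sign of drug toxicity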
Method: as §8, §9
G1: positive drug group: Everolimus (5 mg/kg, qw, 4 w, 3×/w); administration route: intragastrical administration;

[7] = G4 compound I-1 8.12 mg/kg ig 3×/qw
[8] = G5 compound I-1 2.0 mg/kg iv 3×/qw
[9] = G6 compound I-1 8.12 mg/kg iv 3×/qw
[10] = G7 compound I-1 32.7 mg/kg iv 1×/qw

CO[C@H]1C[C@@H]2CC[C@@H](C)[C@@](O)(O2)C(=O)C(=O)N2CCCC[C@H]2C(=O)OC([C@H](C)C[C@@H]2CC[C@@H](OCCOC(=O)CSC[C@H](NC(=O)CC[C@H](N)C(=O)O)C(=O)NCC(=O)O)[C@H](OC)C2)CC(=O)[C@H](C)/C=C(\C)[C@@H](O)[C@@H](OC)C(=O)[C@H](C)C[C@@H](C)\C=C/C=C/C=C/1C (stereo partly shown) [Compound I-1]
IC50 [1]: 55.345 ± 0.005 µM
IC50 (prostate cancer cell PC3): 25.978 ± 0.008 µM
Tumor Inhibition Rate [2, 7]: 55.6%
Tumor Inhibition Rate [2, 8]: 57.1%
Tumor Inhibition Rate [2, 9]: 59.9%
Tumor Inhibition Rate [2, 10]: 60.6%
tumor inhibitory effect (FIG. 7) ([2]; compound I-1 injection, 2.0 mg/Kg 3 times a week or 32.7 mg/Kg once a week): a good tumor inhibitory effect
Tumor Weight ± SD [2, 7]: 0.3002 ± 0.1108 g
Tumor Weight ± SD [2, 8]: 0.2905 ± 0.0936 g
Tumor Weight ± SD [2, 9]: 0.2710 ± 0.1695 g
Tumor Weight ± SD [2, 10]: 0.2669 ± 0.1023 g
IC50 [3]: 11.127 ± 0.005 µM
Mean Volume of Tumor (DU145; Day 0, G2 compound I-1 3.4 mg/kg tail vein injection): 189.84 mm^3
Mean Volume of Tumor (DU145; Day 0, G3 compound I-1 1.7 mg/kg tail vein injection): 187.29 mm^3
Mean Volume of Tumor (DU145; Day 3, G2 compound I-1 3.4 mg/kg tail vein injection): 203.79 mm^3
Mean Volume of Tumor (DU145; Day 3, G3 compound I-1 1.7 mg/kg tail vein injection): 235.34 mm^3
Mean Volume of Tumor (DU145; Day 7, G2 compound I-1 3.4 mg/kg tail vein injection): 223.91 mm^3
Mean Volume of Tumor (DU145; Day 7, G3 compound I-1 1.7 mg/kg tail vein injection): 250.90 mm^3
Mean Volume of Tumor (DU145; Day 10, G2 compound I-1 3.4 mg/kg tail vein injection): 245.45 mm^3
Mean Volume of Tumor (DU145; Day 10, G3 compound I-1 1.7 mg/kg tail vein injection): 269.25 mm^3
Mean Volume of Tumor (DU145; Day 14, G2 compound I-1 3.4 mg/kg tail vein injection): 255.59 mm^3
Mean Volume of Tumor (DU145; Day 14, G3 compound I-1 1.7 mg/kg tail vein injection): 281.22 mm^3
Mean Volume of Tumor (DU145; Day 17, G2 compound I-1 3.4 mg/kg tail vein injection): 261.55 mm^3
Mean Volume of Tumor (DU145; Day 17, G3 compound I-1 1.7 mg/kg tail vein injection): 280.18 mm^3
Mean Volume of Tumor (DU145; Day 21, G2 compound I-1 3.4 mg/kg tail vein injection): 257.96 mm^3
Mean Volume of Tumor (DU145; Day 21, G3 compound I-1 1.7 mg/kg tail vein injection): 300.52 mm^3
Mean Volume of Tumor (DU145; Day 24, G2 compound I-1 3.4 mg/kg tail vein injection): 241.11 mm^3
Mean Volume of Tumor (DU145; Day 24, G3 compound I-1 1.7 mg/kg tail vein injection): 288.39 mm^3
Mean Volume of Tumor (DU145; Day 28, G2 compound I-1 3.4 mg/kg tail vein injection): 267.54 mm^3
Mean Volume of Tumor (DU145; Day 28, G3 compound I-1 1.7 mg/kg tail vein injection): 323.75 mm^3
tumor inhibitory effect compared with intragastrical everolimus 5 mg/kg (DU145; dosage equivalent to a quarter of that of everolimus (1.7 mg/kg)): substantially the same tumor inhibitory effect as that of intragastrical administration of everolimus
tumor inhibitory effect compared with intragastrical everolimus 5 mg/kg (DU145; dosage equivalent to half of that of everolimus (3.4 mg/kg)): significantly superior to that of intragastric administration of everolimus
Body Weights, mean value ([4]; Day 0): 26.20 g
Body Weights, mean value ([4]; Day 3): 25.49 g
Decrease rate (body weight) ([4]; Day 3): 2.73%
Decrease in body weight ([4]; Day 3 vs Day 0): 0.72 g
Body Weights, mean value ([4]; Day 7): 26.79 g
Decrease rate (body weight) ([4]; Day 7): −2.23%
Decrease in body weight ([4]; Day 7 vs Day 0): -0.58 g
Body Weights, mean value ([4]; Day 10): 26.20 g
Decrease rate (body weight) ([4]; Day 10): 0.00%
Decrease in body weight ([4]; Day 10 vs Day 0): 0.00 g
Body Weights, mean value ([4]; Day 14): 27.74 g
Decrease rate (body weight) ([4]; Day 14): −5.87%
Decrease in body weight ([4]; Day 14 vs Day 0): -1.54 g
Body Weights, mean value ([4]; Day 17): 27.84 g
Decrease rate (body weight) ([4]; Day 17): −6.24%
Decrease in body weight ([4]; Day 17 vs Day 0): -1.64 g
Body Weights, mean value ([4]; Day 21): 28.42 g
Decrease rate (body weight) ([4]; Day 21): −8.46%
Decrease in body weight ([4]; Day 21 vs Day 0): -2.22 g
Body Weights, mean value ([4]; Day 24): 28.09 g
Decrease rate (body weight) ([4]; Day 24): −7.20%
Decrease in body weight ([4]; Day 24 vs Day 0): -1.89 g
Body Weights, mean value ([4]; Day 28): 29.00 g
Decrease rate (body weight) ([4]; Day 28): −10.68%
Decrease in body weight ([4]; Day 28 vs Day 0): -2.80 g
toxic and side effect in vivo ([4]; judged from body weight, compound I-1 6.8 mg/kg vs everolimus 5 mg/kg): significantly lower than that of everolimus
IC50 (lung cancer cell NCI460): 27.204 ± 0.007 µM
IC50 [5]: 56.215 ± 0.003 µM
Body Weight, mean value [6]: 25.30 g
